Values after ≈ are worked out from the molar mass of the structure shown. Read-outs that look alike come from different tables or passages of the source.
Legend:
Format in all cases: in vivo
[1] = tested on: barnyard grass (Echinochloa crus-galli); assay: Pre-emergence application, herbicidal effect on barnyard grass (Table 1); design: key: 0: not damaged; 5: completely killed; settings: 20 days after application, score 0-5
How it was run: (§1)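 Pre-emergence soil treatment: seeds sown in pots of about 10 cm and covered with soil, then compounds applied as wettable powder diluted in water. Plants grown in a greenhouse; damage scored 20 days after application from 0 (not damaged) to 5 (completely killed).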

[2] = tested on: large crabgrass (Digitaria sanguinalis); assay: Pre-emergence application, herbicidal effect on large crabgrass (Table 1); design: key: 0: not damaged; 5: completely killed; settings: 20 days after application, score 0-5
How it was run: as §1

[3] = tested on: radish; assay: Pre-emergence application, herbicidal effect on radish (Table 1); design: key: 0: not damaged; 5: completely killed; settings: 20 days after application, score 0-5
How it was run: as §1

[4] = tested on: redroot pigweed (Amaranthus retroflexus); assay: Pre-emergence application, herbicidal effect on redroot pigweed (Table 1); design: key: 0: not damaged; 5: completely killed; settings: 20 days after application, score 0-5
How it was run: as §1

[5] = tested on: common purslane (Portulaca oleracea); assay: Pre-emergence application, herbicidal effect on common purslane (Table 1); design: key: 0: not damaged; 5: completely killed; settings: 20 days after application, score 0-5
How it was run: as §1

[6] = tested on: common lambsquarter (Chenopodium album); assay: Pre-emergence application, herbicidal effect on common lambsquarter (Table 1); design: key: 0: not damaged; 5: completely killed; settings: 20 days after application, score 0-5
How it was run: as §1

[7] = tested on: rice; assay: Water application, phytotoxicity on rice (Table 2); design: key: 0: no effect; 1: very slightly affected; 2: slightly affected; 3: moderately affected; 4: considerably affected; 5: completely killed; settings: 25 days, score 0-5
How it was run: (§2)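 Flooded paddy-soil pots with 3-leaf-stage transplanted rice and sown barnyard grass; wettable-powder compounds applied to soil under water. Herbicidal effect and rice phytotoxicity, also on spontaneously germinated broad-leaved weeds, scored 0–5 at 25 days after application.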

[8] = tested on: carmine mite (Tetranychus telavius); assay: Lethal effect on carmine mite, leaf dipping (Table 3); settings: foliar
Method: A large number of carmine mite adult were made parasitic on leaves of potted kidney beans at a 2-leaves stage which had elapsed 10 days after sowing. The leaves of kidney bean on which carmine mites had been made parasitic were dipped for 1 minute in each aqueous solution of the present compounds of wettable powder type. Water was given to the leaves not to kill them, and after 48 hours the death and alive were observed microscopically to calculate the mortality. Values of LC50 were obtained from the mortality.

[9] = tested on: nematode; assay: Effect on nematode (Table 7); design: tested at 500 ppm; settings: 500 p.p.m., 24 hours
Method: 0.5 ml. of a nematode-containing aqueous solution separated from food according to Baermann's method was placed in a test tube with ground stopper containing 0.5 ml. of an aqueous dilute solution of each emulsifiable concentrates of the present compounds. The concentration of the active ingredient in the mixture was adjusted to 500 p.p.m. After 24 hours, the death and alive were observed microscopically to calculate the mortality.

[10] = tested on: barnyard grass (Echinochloa crus-galli); assay: Water application, herbicidal effect on barnyard grass (Table 2); design: key: 0: not damaged; 5: completely killed; settings: 25 days, score 0-5
How it was run: as §2

[11] = tested on: broad-leaved weeds, e.g., monochoria, false pimpernel and toothcup; assay: Water application, herbicidal effect on broad-leaved weeds (Table 2); design: key: 0: not damaged; 5: completely killed; settings: 25 days, score 0-5
How it was run: as §2

[12] = tested on: broad-leaved weeds, e.g., monochoria, false pimpernel and toothcup; assay: as above; design: key: 0: no effect; 1: very slightly affected; 2: slightly affected; 3: moderately affected; 4: considerably affected; 5: completely killed; settings: 10 g/a, 25 days, score 0-5
From the text: Wagner pots of 14 cm. in diameter, which had been packed with 1.5 kg. of paddy field soil, were brought into the state of paddy fields. To the pots were transplanted rice seedlings at the 3-leave stage. Further, seeds of barnyard grass (Echinochloa crus-galli) were sowed in the pots and required amounts of test compounds were applied to the soil under water lodged condition. 25 days after application, the degrees of herbicidal activity and phytotoxity were investigated on above-mentioned plants which had been transplanted and sowed, and on broad-leaved weeds, e.g., monochoria (Monochoria viaginalis Presl.), false pimpernel (Linderna pyxidaria) and toothcup (Rotala indica Koehue), which had been spontaneously germinated. The test compounds were used in the form of wettable powder. The herbicidal effects and the phytotoxity were evaluated as follows by the numerals ranging from 0 to 5.

Row | Structure (SMILES) | Herbicidal effect, barnyard grass ([1]; 10 g./a.) | Herbicidal effect, barnyard grass ([1]; 20 g./a.) | Herbicidal effect, barnyard grass ([1]; 40 g./a.) | Herbicidal effect, large crabgrass ([2]; 10 g./a.) | Herbicidal effect, large crabgrass ([2]; 20 g./a.) | Herbicidal effect, large crabgrass ([2]; 40 g./a.) | Herbicidal effect, radish ([3]; 10 g./a.) | Herbicidal effect, radish ([3]; 20 g./a.) | Herbicidal effect, radish ([3]; 40 g./a.) | Herbicidal effect, redroot pigweed ([4]; 10 g./a.) | Herbicidal effect, redroot pigweed ([4]; 20 g./a.) | Herbicidal effect, redroot pigweed ([4]; 40 g./a.) | Herbicidal effect, common purslane ([5]; 10 g./a.) | Herbicidal effect, common purslane ([5]; 20 g./a.) | Herbicidal effect, common purslane ([5]; 40 g./a.) | Herbicidal effect, common lambsquarter ([6]; 10 g./a.) | Herbicidal effect, common lambsquarter ([6]; 20 g./a.) | Herbicidal effect, common lambsquarter ([6]; 40 g./a.) | Phytotoxicity on rice ([7]; 10 g/a) | Phytotoxicity on rice ([7]; 20 g/a) | further results
1 | CCCSP(=O)(OCC)SCC(=O)N1CCCCC1CC (centres unmarked) [Compound 14] | 5 | 5 | 5 | 5 | 5 | 5 | 0 | 0 | 0 | 4 | 5 | 5 | 5 | 5 | 5 | 4 | 5 | 5 | 0 | 0 | Phytotoxicity on rice ([7]; 40 g/a): 0; LC50 ([8]; 48 h): 23.1 µg/mL (≈ 65.3 µM); Mortality [9]: 100%; Herbicidal effects, barnyard grass ([10]; 10 g/a): 5; Herbicidal effects, barnyard grass ([10]; 20 g/a): 5; Herbicidal effects, barnyard grass ([10]; 40 g/a): 5; Herbicidal effects, broad-leaved weeds ([11]; 10 g/a): 5; Herbicidal effects, broad-leaved weeds ([11]; 20 g/a): 5; Herbicidal effects, broad-leaved weeds ([11]; 40 g/a): 5
2 | CCCCSP(=O)(OCCC)SCC(=O)N1CCCCC1C (centres unmarked) [Compound 17] | 4 | 4 | 5 | 4 | 5 | 5 | 0 | 0 | 0 | 3 | 4 | 4 | 3 | 4 | 4 | 4 | 4 | 5 | 0 | 0 | Phytotoxicity on rice ([7]; 40 g/a): 0; Herbicidal effects, barnyard grass ([10]; 10 g/a): 5; Herbicidal effects, barnyard grass ([10]; 20 g/a): 5; Herbicidal effects, barnyard grass ([10]; 40 g/a): 5; Herbicidal effects, broad-leaved weeds ([11]; 20 g/a): 5; Herbicidal effects, broad-leaved weeds ([11]; 40 g/a): 5; Herbicidal effects, broad-leaved weeds [12]: 4
3 | CCOP(=O)(SCC(=O)N1CCCCC1C)SC1CCCCC1 (centres unmarked) [Compound 10] | 4 | 4 | 5 | 4 | 4 | 5 | 0 | 0 | 0 | 3 | 4 | 4 | 3 | 4 | 4 | 3 | 4 | 4 | 0 | 0 | Phytotoxicity on rice ([7]; 40 g/a): 0; Mortality [9]: 100%; Herbicidal effects, barnyard grass ([10]; 10 g/a): 5; Herbicidal effects, barnyard grass ([10]; 20 g/a): 5; Herbicidal effects, barnyard grass ([10]; 40 g/a): 5; Herbicidal effects, broad-leaved weeds ([11]; 20 g/a): 5; Herbicidal effects, broad-leaved weeds ([11]; 40 g/a): 5; Herbicidal effects, broad-leaved weeds [12]: 4
4 | CC(COc1ccc(C(C)(C)C)cc1)OCC(C)OS(=O)OCCl (centres unmarked) [Smite, reference compound] | – | – | – | – | – | – | – | – | – | – | – | – | – | – | – | – | – | – | – | – | LC50 ([8]; leaves dipped 1 minute, wettable powder, 48 hours, read-out: LC50): 102 µg/mL (≈ 269 µM)
5 | CCCOP(=O)(SCCc1ccccc1)SCC(=O)N1CCCCC1CC (centres unmarked) [Compound 19] | 4 | 4 | 5 | 4 | 4 | 5 | 0 | 0 | 0 | 4 | 4 | 4 | 4 | 4 | 4 | 3 | 4 | 4 | 0 | 0 | Phytotoxicity on rice ([7]; 40 g/a): 0; Herbicidal effects, barnyard grass ([10]; 10 g/a): 5; Herbicidal effects, barnyard grass ([10]; 20 g/a): 5; Herbicidal effects, barnyard grass ([10]; 40 g/a): 5; Herbicidal effects, broad-leaved weeds ([11]; 20 g/a): 5; Herbicidal effects, broad-leaved weeds ([11]; 40 g/a): 5; Herbicidal effects, broad-leaved weeds [12]: 4
6 | CCCSP(=O)(OC)SCC(=O)N1CCCCC1C (centres unmarked) [Compound 30] | – | – | – | – | – | – | – | – | – | – | – | – | – | – | – | – | – | – | – | – | LC50 ([8]; 48 h): 22.8 µg/mL (≈ 70.1 µM)

From US4015974A, “Amido phosphorothiolates” (priority 1972, dated 1977)
